Experiments:
Rac1 [1] = experiment: Rac1 activation assay (G-LISA); assay type: cell-based; conditions: cells incubated 2 minutes at 1 and 10 μg/mL
Method: Cell cultures were incubated with each tested compound for 2 minutes at concentrations of 1 and 10 μg/mL, after which the cells were tested for Rac1 activation using a G-LISA activation assay. The cells were lysed and the lysates introduced into wells containing Rac-GTP-binding protein, then sequentially incubated with anti-Rac1 antibody and a horseradish peroxidase-linked secondary antibody. The amount of horseradish peroxidase was then quantitated to evaluate the Rac1 activation potency of each compound studied.

[2] = target: T1, PTPRS catalytic domains (D1D2) (Homo sapiens, UniProt Q13332); experiment: In vitro phosphatase assay (modified Malachite Green Assay); assay type: biochemical; conditions: for IC50: 50 nM PTPRS, 100 uM Tyr Phosphopeptide, 15 min preincubation
T1 construct: The two interacellular catalytic domains (D1D2) of PTPRS were cloned into a pET28a vector; made in house; host or cells: E. coli BL21
T1 sequence (Q13332 1304-1948 limits assumed): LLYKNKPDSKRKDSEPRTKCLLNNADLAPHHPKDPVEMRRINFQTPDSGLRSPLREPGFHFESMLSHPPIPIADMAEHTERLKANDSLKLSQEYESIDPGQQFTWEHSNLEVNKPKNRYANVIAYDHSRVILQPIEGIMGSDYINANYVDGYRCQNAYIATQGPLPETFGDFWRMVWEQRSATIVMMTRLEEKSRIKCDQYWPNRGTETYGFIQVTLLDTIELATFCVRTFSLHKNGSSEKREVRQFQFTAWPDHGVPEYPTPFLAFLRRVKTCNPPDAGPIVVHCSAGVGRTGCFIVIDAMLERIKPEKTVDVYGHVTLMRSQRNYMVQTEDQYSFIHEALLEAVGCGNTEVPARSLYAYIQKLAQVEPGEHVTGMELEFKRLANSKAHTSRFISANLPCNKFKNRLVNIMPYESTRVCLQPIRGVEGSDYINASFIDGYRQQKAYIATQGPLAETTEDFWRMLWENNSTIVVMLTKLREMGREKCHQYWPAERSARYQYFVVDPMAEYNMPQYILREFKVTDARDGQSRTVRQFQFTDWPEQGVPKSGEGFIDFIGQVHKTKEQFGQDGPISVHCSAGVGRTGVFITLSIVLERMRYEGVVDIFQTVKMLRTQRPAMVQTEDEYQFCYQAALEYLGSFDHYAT
Method: The two interacellular catalytic domains (D1D2) of PTPRS were cloned into a pET28a vector and overexpressed in E. coli BL21 and purified as described in Jeon T J, et al. Structure of the Catalytic Domain of Protein Tyrosine Phosphatase Sigma in the Sulfenic Acid Form. Molecules and Cells. 2013; 36(1):55-61. doi:10.1007/s10059-013-0033-x. Enzymatic activity of PTPRS was assayed using a modified version of the Malachite Green Assay (described in Lorenz U. Protein Tyrosine Phosphatase Assays. Current protocols in immunology/edited by John E Coligan. [et al]. 2011; CHAPTER:Unit-11.7. doi:10.1002/0471142735.im1107s93) and the Tyrosine Phosphatase Assay Kit (Promega Coorperation). Unless stated otherwise, standard assays were carried out using 50 nM PTPRS protein in 1× Buffer (10 mM Tris, 5 mM MgCl2, 10 mM NaCl, 0.02% Tween) and Tyr Phosphopeptide as substrate (100 uM for FIG. 1 and 50-1200 uM in FIG. 2). Catalytic domains D1D2 were preincubated with the test compound or control for 15 min in the wells of a 96 well plate before the addition of 100 uM Tyr Phosphopeptide (DADA(pY)LIPQQG).
For IC50 determination, rates normalized relative to uninhibited controls (DMSO) were plotted against compound concentration and fitted using a four-parameter nonlinear regression curve fit ((y=[(A−D) (1+{xC−1}B)−1]+D), (Prism 6.0, Graphpad Software). For mechanism studies and determination of the enyzme's Km and Vmax, data were analyzed using a nonlinear regression fit according to classical Mechaelis-Menten kinetics model Y=Vmax*X/(Km+X) (Prism 6.0, Graphpad Software).

irradiated mice = experiment: Survival and HSC regeneration of irradiated mice; assay type: in vivo; conditions: for Survival of irradiated mice: irradiated mice (DJ001: 750 cGy, lethal dose)
Description: (§1) A) CFU-GEMMs produced by TSF media vs. TSF+GJ001 (p=0.001). B) Percentage of BM KSL cells expressing Rac1 GTP (p=0.008). C) Survival of mice irradiated with 750 cGy followed by treatment with DJ001 or vehicle (p=0.0007). D) % BM KSL cells (blue) and % ckit^+sca-1^−lin^− progenitors (gray) at day+21 in irradiated mice.

[3] = system: hematopoietic colony formation; experiment: Hematopoietic colony formation; assay type: cell-based
Rac1 [4] = experiment: Rac1 signaling in HSCs (BM KSL cells expressing Rac1 GTP, FIG. 1); assay type: cell-based
Description: as §1

With O=C(/C=C\Nc1cccc(F)c1)c1ccccc1 [DJ002] as the molecule, how does the “Rac1 Activation” value (Rac1 [1]) read?
The value was “no”.

CN(C)c1cccc(N/C=C\C(=O)c2ccccc2)c1 [DJ008] was tested. Which “Rac1 Activation” value (Rac1 [1]) did it give?
Its value is “no”.

For CC(C)(C)N/C=C\C(=O)c1ccccc1 [DJ019], which “Rac1 Activation” value (Rac1 [1]) is on record?
The value was “no”.

What does the source list for O=C(/C=C\Nc1cccc(C(F)(F)F)c1)c1ccccc1 [DJ003]?
Rac1 Activation (Rac1 [1]): yes; IC50 [2]: 1.06 µM; Survival of irradiated mice (irradiated mice): improves survival of irradiated mice; Hematopoietic colony formation [3]: increases hematopoietic colony formation

COc1cccc(N/C=C\C(=O)c2ccccc2)c1 [DJ005] was tested. Which “Rac1 Activation” value (Rac1 [1]) did it give?
The value was “no”.

How did the “Rac1 Activation” value (Rac1 [1]) turn out when O=C(/C=C\Nc1ccccc1)c1ccccc1 [DJ013] was run?
The value was “yes”.

Which “Rac1 Activation” value (Rac1 [1]) does the source give for CN(C)S(=O)(=O)c1cccc(N/C=C\C(=O)c2ccccc2)c1 [DJ016] here?
Its value is “no”.

O=C(c1ccccc1)c1ccccc1Nc1cccc([N+](=O)[O-])c1 [DJ027] was tested. Which IC50 [2] did it give?
Its IC50 is 0.91 µM.

With Cc1cccc(C(=O)/C=C\Nc2cccc(C(F)(F)F)c2)c1 [DJ033] as the molecule, how does the IC50 [2] read?
The IC50 was 0.95 µM.

How did the “Rac1 Activation” value (Rac1 [1]) turn out when O=C(/C=C\NCc1ccco1)c1ccccc1 [DJ018] was run?
Its value is “no”.

Which “Rac1 Activation” value (Rac1 [1]) does the source give for O=C(/C=C\Nc1cc(F)cc(F)c1)c1ccccc1 [DJ009] here?
Its value is “yes”.

And the IC50 [2]?
The IC50 was 1.37 µM.

How did the “Rac1 Activation” value (Rac1 [1]) turn out when Cc1cccc(N/C=C\C(=O)c2ccccc2)c1 [DJ004] was run?
Its value is “yes”.

Which “Rac1 Activation” value (Rac1 [1]) does the source give for CC(C)(C)[Si](C)(C)Oc1cccc(N/C=C\C(=O)c2ccccc2)c1 [DJ014] here?
Its value is “yes”.

O=C(/C=C\Nc1cc(C(F)(F)F)cc(C(F)(F)F)c1)c1ccccc1 [DJ030] was tested. Which IC50 [2] did it give?
Its IC50 is 1.83 µM.

Which “Rac1 Activation” value (Rac1 [1]) does the source give for O=C(/C=C\Nc1cccc(O)c1)c1ccccc1 [DJ015] here?
The value was “yes”.

What about the IC50 [2] of the same molecule?
Its IC50 is 1.39 µM.

Which “Rac1 Activation” value (Rac1 [1]) does the source give for O=C(/C=C\Nc1cccc([N+](=O)[O-])c1)c1ccccc1 [DJ001] here?
The value was “yes”.

And the IC50 [2]?
Its IC50 is 1.43 µM.

And the “Mechanism of inhibition (substrate titration of PTPσ, Vmax and Km)” value ([2]; substrate titration, Michaelis-Menten fit)?
Its value is “classical noncompetitive inhibitor”.

And the “Rac1 signaling in HSCs” value (Rac1 [4])?
The value was “activates Rac1 signaling in HSCs”.

And the “HSC regeneration in irradiated mice” value (irradiated mice; irradiated mice)?
The value was “accelerates HSC regeneration in irradiated mice”.

What about the “Survival of irradiated mice” value (irradiated mice) of the same molecule?
Its value is “dramatically increases mice survival following lethal dose irradiation”.

For CC(=O)c1cccc(N/C=C\C(=O)c2ccccc2)c1 [DJ006], which “Rac1 Activation” value (Rac1 [1]) is on record?
The value was “no”.

And the IC50 [2]?
Its IC50 is 3.03 µM.

How did the “Rac1 Activation” value (Rac1 [1]) turn out when O=C(/C=C\Nc1cccc(-c2ccccc2)c1)c1ccccc1 [DJ007] was run?
The value was “no”.

Which “Rac1 Activation” value (Rac1 [1]) does the source give for Cc1cc(C)cc(N/C=C\C(=O)c2ccccc2)c1 [DJ011] here?
The value was “yes”.

For COc1cc(N/C=C\C(=O)c2ccccc2)cc(OC)c1 [DJ012], which “Rac1 Activation” value (Rac1 [1]) is on record?
The value was “yes”.

Which “Rac1 Activation” value (Rac1 [1]) does the source give for CCCCN/C=C\C(=O)c1ccccc1 [DJ017] here?
The value was “no”.

From patent US10822299B2, “Compounds and methods for hematopoietic regeneration” (The Regents of the University of California, priority 2016, dated 2020)
